Legend:
Assay type in all cases: physicochemical
[1] = Packaging test: drug lost from drug-loaded silicone hydrogel to PBS packaging solution; details: 0.1 mm thick GEL1, 1.75 cm diameter, loaded from drug-ethanol solution
Experimental: (§1) Commercial contact lenses are typically packaged in about 1-1.5 ml of packaging solution such as PBS. To estimate the effects of packaging on drug release behavior of silicone hydrogel appliances, packaging tests were conducted. A 0.1 mm thick silicone hydrogel was cut into circular pieces of 1.75 cm diameter and a drug was loaded by soaking the silicone hydrogel in a drug-ethanol solution. A 0.1 mm thick piece of GEL1 was loaded with a drug by soaking in drug-ethanol solution of 6.4 mg/ml for timolol and 4.8 mg/ml for DXA. The GEL1 pieces were then blotted with wipes to remove excess drug-ethanol solution from the pieces. The pieces were dried in air overnight before conducting the packaging tests. The silicone hydrogels were then stored in 1 ml of PBS (packaging) solution in a sealed vials for 1.3 or 2 months, and subsequently the appliance was placed in 2 ml of fresh PBS solution. The release of the drug over time is plotted in FIG. 17 and FIG. 18 for timolol and DXA, respectively. For timolol, about 364 μg and 404 μg of drug were lost to the packaging solution for the appliance stored for 1.3 months and 2 months, respectively. The residual drug released into the fresh PBS solution at an average rate of 0.09 mg/(g of gel·day) for 20 days, and then at a lower rate for another 2 months as shown in FIG. 17. […]

[2] = Drug release into fresh PBS solution after packaging storage; details: 2 ml fresh PBS
Experimental: as §1

[3] = Drug release experiments from ethanol-loaded silicone hydrogel pieces soaked in PBS; details: GEL1 to GEL4, 0.1-0.4 mm thick, loaded from 0.64 or 6.4 mg/mL ethanol solution
Experimental: Drugs were individually loaded into individual square pieces of the gels by soaking a gel in 2 or 2.5 mL of a drug-ethanol solution for a period of 3 hours. At the end of three hours the gel was taken out and excess drug-ethanol solution was blotted from the surface of the piece with wipes. The gels were dried in air overnight, and subsequently used for drug release experiments. Results of drug release experiment are given below for three drugs (dexamethasone (DX), dexamethasone acetate (DXA) and timolol) which were individually loaded into different gel pieces.
Drug release experiments were conducted by soaking the square shaped drug containing gel pieces, prepared as described in Example 1, in Dulbecco's phosphate buffered saline (PBS). The volume of the PBS was varied depending on the thickness of the gel to maintain a constant volume ratio of gel to PBS for all samples. The gels of 0.1 mm, 0.2 mm, and 0.4 mm thickness were soaked in 1.5 mL, 3 mL, 6 mL of PBS, respectively.
In like manner to Examples 1, 2 and 3, timolol release experiments were conducted with square pieces of the gels of three different thicknesses for the four different compositions prepared in Example 1 (GEL1 to GEL4), with two different drug loadings by varying the concentration of the drug-ethanol solution used. […]

CC(C)(C)NC[C@H](O)COc1nsnc1N1CCOCC1 [timolol]
drug lost to the packaging solution ([1]; stored in 1 ml PBS for 1.3 months): about 364 μg | drug lost to the packaging solution ([1]; stored in 1 ml PBS for 2 months): ~404 µg | further release at a lower rate, duration ([2]; 0.1 mm thick GEL1 after packaging, after the first 20 days): 2 months | average release rate of residual drug into fresh PBS solution ([2]; 0.1 mm thick GEL1 loaded from 6.4 mg/ml ethanol solution, after packaging, for 20 days): 0.09 mg/(g of gel·day) | initial burst release (in words) [3]: initial burst is small in each system | release behaviour from gels into PBS (in words) [3]: all gels release timolol over a long period of time

Reference: US20100178316A1, “EXTENDED RELEASE OF BIOACTIVE MOLECULES FROM SILICONE HYDROGELS” (priority 2007, published 2010)
